Measured values as given in the kinase profiling compilation of Christmann-Franck et al. (2016).

How the values were obtained:
Assay in all cases: KINOMEscan competition binding
[1] = target: ACVR1 (human) (UniProt Q04771); conditions: compound 10.0 µM
[2] = target: AURKB (human) (UniProt Q96GD4); conditions: compound 10.0 µM
[3] = target: BMPR1B (human) (UniProt O00238); conditions: compound 10.0 µM
[4] = target: BRSK2 (human) (UniProt Q8IWQ3); conditions: compound 10.0 µM
[5] = target: CAMKK1 (human) (UniProt Q8N5S9); conditions: compound 10.0 µM
[6] = target: CAMKK2 (human) (UniProt Q96RR4); conditions: compound 10.0 µM
[7] = target: CIT (human) (UniProt O14578); conditions: compound 10.0 µM
[8] = target: CLK1 (human) (UniProt P49759)
[9] = target: CLK4 (human) (UniProt Q9HAZ1); conditions: compound 10.0 µM
[10] = target: CSNK1D (human) (UniProt P48730); conditions: compound 10.0 µM
[11] = target: CSNK1G3 (human) (UniProt Q9Y6M4); conditions: compound 10.0 µM
[12] = target: CSNK2A2 (human) (UniProt P19784)
[13] = target: DAPK1 (human) (UniProt P53355)
[14] = target: DYRK1B (human) (UniProt Q9Y463); conditions: compound 10.0 µM
[15] = system: EGFR (human), P00533 [G719S]; conditions: compound 10.0 µM
[16] = system: EIF2AK4 KD2 (human), Q9P2K8 [S808G]; conditions: compound 10.0 µM
[17] = target: FLT3 (human) (UniProt P36888); conditions: compound 10.0 µM
[18] = system: FLT3 (human), P36888 [ITD]; conditions: compound 10.0 µM
[19] = system: FLT3 (human), P36888 [K663Q]; conditions: compound 10.0 µM
[20] = target: GAK (human) (UniProt O14976); conditions: compound 10.0 µM
[21] = target: GSK3A (human) (UniProt P49840); conditions: compound 10.0 µM
[22] = target: KIT (human) (UniProt P10721); conditions: compound 10.0 µM
[23] = target: MAP3K5 (human) (UniProt Q99683); conditions: compound 10.0 µM
[24] = target: MAP3K7 (human) (UniProt O43318); conditions: compound 10.0 µM
[25] = target: MAP4K4 (human) (UniProt O95819); conditions: compound 10.0 µM
[26] = target: MELK (human) (UniProt Q14680); conditions: compound 10.0 µM
[27] = target: MKNK2 (human) (UniProt Q9HBH9); conditions: compound 10.0 µM
[28] = target: MYLK3 (human) (UniProt Q32MK0); conditions: compound 10.0 µM
[29] = target: PIK3CG (human) (UniProt P48736); conditions: compound 10.0 µM
[30] = target: PIM2 (human) (UniProt Q9P1W9); conditions: compound 10.0 µM
[31] = target: PLK4 (human) (UniProt O00444); conditions: compound 10.0 µM
[32] = target: PRKD3 (human) (UniProt O94806); conditions: compound 10.0 µM
[33] = target: RIOK2 (human) (UniProt Q9BVS4); conditions: compound 10.0 µM
[34] = target: RIOK3 (human) (UniProt O14730); conditions: compound 10.0 µM
[35] = target: RIPK4 (human) (UniProt P57078); conditions: compound 10.0 µM
[36] = target: RPS6KA1 KD2 (human) (UniProt Q15418); conditions: compound 10.0 µM
[37] = target: RPS6KA5 KD2 (human) (UniProt O75582); conditions: compound 10.0 µM
[38] = target: SRPK3 (human) (UniProt Q9UPE1); conditions: compound 10.0 µM
[39] = target: STK16 (human) (UniProt O75716); conditions: compound 10.0 µM
[40] = target: STK17B (human) (UniProt O94768)
[41] = target: STK24 (human) (UniProt Q9Y6E0); conditions: compound 10.0 µM
[42] = target: TNIK (human) (UniProt Q9UKE5); conditions: compound 10.0 µM

CLK1 (human), sequence (P49759 whole entry, looked up): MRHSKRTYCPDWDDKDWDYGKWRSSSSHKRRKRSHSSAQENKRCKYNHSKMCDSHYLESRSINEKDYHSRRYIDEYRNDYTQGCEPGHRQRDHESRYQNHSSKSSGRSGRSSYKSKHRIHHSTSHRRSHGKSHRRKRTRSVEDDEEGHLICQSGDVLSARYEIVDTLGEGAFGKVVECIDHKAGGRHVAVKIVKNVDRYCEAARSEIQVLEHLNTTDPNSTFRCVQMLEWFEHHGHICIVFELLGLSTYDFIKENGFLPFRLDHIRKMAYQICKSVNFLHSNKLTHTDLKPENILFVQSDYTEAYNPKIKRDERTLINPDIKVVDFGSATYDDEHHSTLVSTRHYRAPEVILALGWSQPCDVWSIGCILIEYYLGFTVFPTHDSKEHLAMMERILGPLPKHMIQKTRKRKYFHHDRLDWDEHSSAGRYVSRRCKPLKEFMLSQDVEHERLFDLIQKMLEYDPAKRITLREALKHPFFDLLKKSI
CSNK2A2 (human), sequence (P19784 whole entry, looked up): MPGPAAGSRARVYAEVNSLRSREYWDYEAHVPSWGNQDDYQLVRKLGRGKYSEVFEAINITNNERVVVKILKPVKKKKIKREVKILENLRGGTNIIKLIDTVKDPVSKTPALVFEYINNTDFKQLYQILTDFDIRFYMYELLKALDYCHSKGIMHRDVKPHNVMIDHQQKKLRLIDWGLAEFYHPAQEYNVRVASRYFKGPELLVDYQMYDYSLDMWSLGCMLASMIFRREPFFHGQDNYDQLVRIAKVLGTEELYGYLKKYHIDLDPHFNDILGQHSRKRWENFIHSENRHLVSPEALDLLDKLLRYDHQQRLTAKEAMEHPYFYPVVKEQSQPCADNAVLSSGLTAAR
DAPK1 (human), sequence (P53355 whole entry, looked up): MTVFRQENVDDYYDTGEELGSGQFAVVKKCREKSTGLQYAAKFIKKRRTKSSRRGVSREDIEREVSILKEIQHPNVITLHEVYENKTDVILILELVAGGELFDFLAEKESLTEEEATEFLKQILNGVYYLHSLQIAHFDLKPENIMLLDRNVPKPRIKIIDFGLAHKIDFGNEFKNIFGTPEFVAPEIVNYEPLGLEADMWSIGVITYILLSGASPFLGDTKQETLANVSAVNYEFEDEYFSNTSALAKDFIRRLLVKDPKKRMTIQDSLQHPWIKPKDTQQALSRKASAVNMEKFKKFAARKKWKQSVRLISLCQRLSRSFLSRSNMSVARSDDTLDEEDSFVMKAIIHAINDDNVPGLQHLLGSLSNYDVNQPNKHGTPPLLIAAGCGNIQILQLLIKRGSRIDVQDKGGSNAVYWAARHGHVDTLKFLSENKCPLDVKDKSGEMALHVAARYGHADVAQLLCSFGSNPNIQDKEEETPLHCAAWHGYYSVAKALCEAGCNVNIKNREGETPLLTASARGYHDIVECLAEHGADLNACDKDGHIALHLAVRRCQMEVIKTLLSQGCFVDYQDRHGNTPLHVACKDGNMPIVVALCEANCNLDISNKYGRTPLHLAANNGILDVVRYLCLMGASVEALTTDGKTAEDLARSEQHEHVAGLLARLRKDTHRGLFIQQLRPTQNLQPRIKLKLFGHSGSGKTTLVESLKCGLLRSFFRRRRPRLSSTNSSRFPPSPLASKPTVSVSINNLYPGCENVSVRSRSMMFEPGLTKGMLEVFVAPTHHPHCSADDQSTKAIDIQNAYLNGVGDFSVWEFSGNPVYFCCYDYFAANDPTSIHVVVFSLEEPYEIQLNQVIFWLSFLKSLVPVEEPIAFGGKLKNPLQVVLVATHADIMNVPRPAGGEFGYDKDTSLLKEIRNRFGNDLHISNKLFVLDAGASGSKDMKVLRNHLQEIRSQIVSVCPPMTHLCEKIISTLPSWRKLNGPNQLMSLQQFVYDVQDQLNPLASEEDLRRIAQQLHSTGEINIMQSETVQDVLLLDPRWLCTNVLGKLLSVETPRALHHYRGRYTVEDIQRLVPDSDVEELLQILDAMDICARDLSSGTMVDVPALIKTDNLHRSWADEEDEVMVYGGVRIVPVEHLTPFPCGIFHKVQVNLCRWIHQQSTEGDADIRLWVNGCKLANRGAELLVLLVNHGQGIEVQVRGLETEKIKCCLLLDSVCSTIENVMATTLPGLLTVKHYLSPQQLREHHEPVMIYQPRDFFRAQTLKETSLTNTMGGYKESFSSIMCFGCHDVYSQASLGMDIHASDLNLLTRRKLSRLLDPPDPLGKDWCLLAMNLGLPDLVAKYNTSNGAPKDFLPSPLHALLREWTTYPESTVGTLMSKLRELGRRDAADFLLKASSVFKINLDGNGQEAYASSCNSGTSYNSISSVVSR
STK17B (human), sequence (O94768 whole entry, looked up): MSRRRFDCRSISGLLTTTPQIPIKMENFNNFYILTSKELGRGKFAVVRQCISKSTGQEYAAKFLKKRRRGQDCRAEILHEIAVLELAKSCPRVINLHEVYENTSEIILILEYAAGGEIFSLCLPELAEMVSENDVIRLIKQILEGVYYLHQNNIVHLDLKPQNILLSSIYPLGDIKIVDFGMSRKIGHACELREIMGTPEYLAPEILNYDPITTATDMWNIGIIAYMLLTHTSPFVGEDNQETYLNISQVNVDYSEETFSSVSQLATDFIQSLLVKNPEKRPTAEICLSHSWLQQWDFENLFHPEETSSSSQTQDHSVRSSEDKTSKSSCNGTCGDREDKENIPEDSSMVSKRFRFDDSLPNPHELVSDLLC
CIT (human), sequence (O14578 whole entry, looked up): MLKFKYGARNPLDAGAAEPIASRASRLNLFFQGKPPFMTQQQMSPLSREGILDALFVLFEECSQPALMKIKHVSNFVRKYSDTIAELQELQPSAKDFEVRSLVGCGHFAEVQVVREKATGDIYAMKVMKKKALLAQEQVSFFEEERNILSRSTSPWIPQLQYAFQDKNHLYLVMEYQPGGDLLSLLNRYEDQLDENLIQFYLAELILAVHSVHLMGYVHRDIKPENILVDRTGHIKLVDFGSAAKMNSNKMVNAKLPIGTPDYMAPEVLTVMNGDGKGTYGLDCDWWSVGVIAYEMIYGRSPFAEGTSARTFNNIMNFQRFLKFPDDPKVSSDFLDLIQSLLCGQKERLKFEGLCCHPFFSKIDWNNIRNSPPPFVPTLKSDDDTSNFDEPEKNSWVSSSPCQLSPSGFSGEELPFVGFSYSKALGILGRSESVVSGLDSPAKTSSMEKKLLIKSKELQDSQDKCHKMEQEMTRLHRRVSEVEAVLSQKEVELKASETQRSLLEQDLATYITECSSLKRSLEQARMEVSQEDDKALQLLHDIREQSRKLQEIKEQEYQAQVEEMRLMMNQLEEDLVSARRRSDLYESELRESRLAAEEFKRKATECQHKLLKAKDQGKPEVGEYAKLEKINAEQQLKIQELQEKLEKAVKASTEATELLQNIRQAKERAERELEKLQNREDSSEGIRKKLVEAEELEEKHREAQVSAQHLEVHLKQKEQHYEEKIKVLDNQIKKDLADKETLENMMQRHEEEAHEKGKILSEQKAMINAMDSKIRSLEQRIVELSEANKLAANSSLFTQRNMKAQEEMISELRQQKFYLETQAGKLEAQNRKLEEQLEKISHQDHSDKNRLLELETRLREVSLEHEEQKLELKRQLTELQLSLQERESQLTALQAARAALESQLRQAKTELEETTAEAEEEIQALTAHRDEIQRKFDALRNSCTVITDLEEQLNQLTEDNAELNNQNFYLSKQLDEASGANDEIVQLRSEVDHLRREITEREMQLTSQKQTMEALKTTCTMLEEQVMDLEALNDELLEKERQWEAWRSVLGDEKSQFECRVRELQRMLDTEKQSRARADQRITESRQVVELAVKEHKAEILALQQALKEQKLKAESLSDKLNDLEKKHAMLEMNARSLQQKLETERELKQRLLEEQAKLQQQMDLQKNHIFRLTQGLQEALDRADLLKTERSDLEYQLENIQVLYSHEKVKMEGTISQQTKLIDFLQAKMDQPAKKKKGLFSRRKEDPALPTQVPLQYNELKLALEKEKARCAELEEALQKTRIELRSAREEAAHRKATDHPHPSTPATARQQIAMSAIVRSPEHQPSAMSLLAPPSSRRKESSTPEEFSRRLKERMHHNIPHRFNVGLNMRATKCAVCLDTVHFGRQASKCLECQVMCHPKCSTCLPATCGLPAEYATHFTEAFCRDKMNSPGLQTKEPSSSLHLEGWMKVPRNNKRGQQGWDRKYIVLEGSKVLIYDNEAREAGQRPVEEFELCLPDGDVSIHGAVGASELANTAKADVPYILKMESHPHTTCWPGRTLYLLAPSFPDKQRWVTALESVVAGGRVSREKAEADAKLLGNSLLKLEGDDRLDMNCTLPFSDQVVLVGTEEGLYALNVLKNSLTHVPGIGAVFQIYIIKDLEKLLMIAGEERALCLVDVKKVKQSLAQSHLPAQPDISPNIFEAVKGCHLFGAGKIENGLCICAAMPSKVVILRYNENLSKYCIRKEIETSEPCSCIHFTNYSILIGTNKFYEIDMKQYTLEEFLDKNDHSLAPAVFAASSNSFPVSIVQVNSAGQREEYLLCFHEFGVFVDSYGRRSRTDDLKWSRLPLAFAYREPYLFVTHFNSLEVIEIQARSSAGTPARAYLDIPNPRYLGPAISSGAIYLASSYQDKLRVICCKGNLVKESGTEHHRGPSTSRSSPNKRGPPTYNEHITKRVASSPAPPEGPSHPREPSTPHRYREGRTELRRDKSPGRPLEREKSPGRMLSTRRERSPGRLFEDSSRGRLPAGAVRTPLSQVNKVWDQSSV
STK16 (human), sequence (O75716 whole entry, looked up): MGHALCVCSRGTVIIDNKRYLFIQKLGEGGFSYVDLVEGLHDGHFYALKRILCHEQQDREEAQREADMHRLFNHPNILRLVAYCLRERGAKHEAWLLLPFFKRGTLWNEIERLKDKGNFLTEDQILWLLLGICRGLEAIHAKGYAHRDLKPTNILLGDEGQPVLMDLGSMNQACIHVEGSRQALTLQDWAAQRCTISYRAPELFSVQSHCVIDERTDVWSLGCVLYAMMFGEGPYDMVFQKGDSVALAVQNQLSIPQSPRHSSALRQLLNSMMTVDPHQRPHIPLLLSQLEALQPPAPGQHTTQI

**Q.** With `O=C1NC(=O)/C(=C/c2c[nH]c(=O)c(-c3ccc(N4CCNCC4)nc3)c2)S1` as the compound, how does the kinase still bound, per cent of control [1] read?
**A.** 20%

**Q.** What about the kinase still bound, per cent of control [2] of the same compound?
**A.** 71%

**Q.** And the kinase still bound, per cent of control [3]?
**A.** 4.8%

**Q.** And the kinase still bound, per cent of control [4]?
**A.** 100%

**Q.** What about the kinase still bound, per cent of control [5] of the same compound?
**A.** 14%

**Q.** And the kinase still bound, per cent of control [6]?
**A.** 31%

**Q.** What about the kinase still bound, per cent of control [7] of the same compound?
**A.** 37%

**Q.** What about the Kd [8] of the same compound?
**A.** 240 nM

**Q.** What about the kinase still bound, per cent of control ([8]; compound 10.0 µM) of the same compound?
**A.** 0.3%

**Q.** What about the kinase still bound, per cent of control [9] of the same compound?
**A.** 15%

**Q.** What about the kinase still bound, per cent of control [10] of the same compound?
**A.** 13%

**Q.** What about the kinase still bound, per cent of control [11] of the same compound?
**A.** 3.2%

**Q.** And the Kd [12]?
**A.** 6.1 nM

**Q.** And the kinase still bound, per cent of control ([12]; compound 10.0 µM)?
**A.** 0%

**Q.** And the Kd [13]?
**A.** 9.5 nM

**Q.** And the kinase still bound, per cent of control ([13]; compound 10.0 µM)?
**A.** 0.35%

**Q.** And the kinase still bound, per cent of control [14]?
**A.** 3%

**Q.** And the kinase still bound, per cent of control [15]?
**A.** 58%

**Q.** What about the kinase still bound, per cent of control [16] of the same compound?
**A.** 2.6%

**Q.** And the kinase still bound, per cent of control [17]?
**A.** 91%

**Q.** And the kinase still bound, per cent of control [18]?
**A.** 75%

**Q.** What about the kinase still bound, per cent of control [19] of the same compound?
**A.** 92%

**Q.** What about the kinase still bound, per cent of control [20] of the same compound?
**A.** 3.2%

**Q.** What about the kinase still bound, per cent of control [21] of the same compound?
**A.** 75%

**Q.** And the kinase still bound, per cent of control [22]?
**A.** 82%

**Q.** What about the kinase still bound, per cent of control [23] of the same compound?
**A.** 100%

**Q.** What about the kinase still bound, per cent of control [24] of the same compound?
**A.** 91%

**Q.** And the kinase still bound, per cent of control [25]?
**A.** 4.9%

**Q.** What about the kinase still bound, per cent of control [26] of the same compound?
**A.** 24%

**Q.** What about the kinase still bound, per cent of control [27] of the same compound?
**A.** 93%

**Q.** What about the kinase still bound, per cent of control [28] of the same compound?
**A.** 2.6%

**Q.** And the kinase still bound, per cent of control [29]?
**A.** 0.3%

**Q.** And the kinase still bound, per cent of control [30]?
**A.** 1.1%

**Q.** What about the kinase still bound, per cent of control [31] of the same compound?
**A.** 90%

**Q.** What about the kinase still bound, per cent of control [32] of the same compound?
**A.** 13%

**Q.** What about the kinase still bound, per cent of control [33] of the same compound?
**A.** 66%

**Q.** What about the kinase still bound, per cent of control [34] of the same compound?
**A.** 3.4%

**Q.** And the kinase still bound, per cent of control [35]?
**A.** 100%

**Q.** And the kinase still bound, per cent of control [36]?
**A.** 34%

**Q.** What about the kinase still bound, per cent of control [37] of the same compound?
**A.** 59%

**Q.** And the kinase still bound, per cent of control [38]?
**A.** 6%

**Q.** What about the kinase still bound, per cent of control [39] of the same compound?
**A.** 36%

**Q.** What about the Kd [40] of the same compound?
**A.** 130 nM

**Q.** And the kinase still bound, per cent of control ([40]; compound 10.0 µM)?
**A.** 0.15%

**Q.** And the kinase still bound, per cent of control [41]?
**A.** 71%

**Q.** And the kinase still bound, per cent of control [42]?
**A.** 11%
